Experiments:
[1] = biological target: Mitogen-activated protein kinase kinase kinase 9 (Homo sapiens) (UniProt P80192); assay: Competitive binding affinity to MLK1 (unknown origin) at 10 uM in presence of ATP relative to control
[2] = biological target: Dual specificity mitogen-activated protein kinase kinase 1 (Homo sapiens) (UniProt Q02750); assay: Competitive binding affinity to MEK1 (unknown origin) at 10 uM in presence of ATP relative to control
[3] = biological target: MAP kinase-activated protein kinase 2 (Homo sapiens) (UniProt P49137); assay: Competitive binding affinity to MAPKAPK2 (unknown origin) at 10 uM in presence of ATP relative to control
Homo sapiens = species: Homo sapiens; assay: Competitive binding affinity to EGFR L747 to S752 deletion mutant, P753S mutant (unknown origin) at 10 uM in presence of ATP relative to control
[4] = biological target: T1, Serine/threonine-protein kinase 17B (Homo sapiens) (UniProt O94768); assay: Competitive binding affinity to DRAK2 (unknown origin) at 10 uM in presence of ATP relative to control
T1 sequence (whole entry): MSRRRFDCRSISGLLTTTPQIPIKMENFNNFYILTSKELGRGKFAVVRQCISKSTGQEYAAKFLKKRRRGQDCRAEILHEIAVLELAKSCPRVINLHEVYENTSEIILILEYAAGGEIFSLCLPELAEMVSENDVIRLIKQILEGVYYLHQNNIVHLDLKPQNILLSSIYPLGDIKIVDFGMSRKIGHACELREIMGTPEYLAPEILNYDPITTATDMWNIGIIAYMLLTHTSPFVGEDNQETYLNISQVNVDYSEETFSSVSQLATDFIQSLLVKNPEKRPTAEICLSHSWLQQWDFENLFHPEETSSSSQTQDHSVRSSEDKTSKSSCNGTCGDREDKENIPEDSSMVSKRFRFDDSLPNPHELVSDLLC

[5] = biological target: Serine/threonine-protein kinase MRCK gamma (Homo sapiens) (UniProt Q6DT37); assay: Competitive binding affinity to DMPK2 (unknown origin) at 10 uM in presence of ATP relative to control
[6] = biological target: T2, Serine/threonine-protein kinase DCLK2 (Homo sapiens) (UniProt Q8N568); assay: Competitive binding affinity to DCAMKL2 (unknown origin) at 10 uM in presence of ATP relative to control
T2 sequence (whole entry): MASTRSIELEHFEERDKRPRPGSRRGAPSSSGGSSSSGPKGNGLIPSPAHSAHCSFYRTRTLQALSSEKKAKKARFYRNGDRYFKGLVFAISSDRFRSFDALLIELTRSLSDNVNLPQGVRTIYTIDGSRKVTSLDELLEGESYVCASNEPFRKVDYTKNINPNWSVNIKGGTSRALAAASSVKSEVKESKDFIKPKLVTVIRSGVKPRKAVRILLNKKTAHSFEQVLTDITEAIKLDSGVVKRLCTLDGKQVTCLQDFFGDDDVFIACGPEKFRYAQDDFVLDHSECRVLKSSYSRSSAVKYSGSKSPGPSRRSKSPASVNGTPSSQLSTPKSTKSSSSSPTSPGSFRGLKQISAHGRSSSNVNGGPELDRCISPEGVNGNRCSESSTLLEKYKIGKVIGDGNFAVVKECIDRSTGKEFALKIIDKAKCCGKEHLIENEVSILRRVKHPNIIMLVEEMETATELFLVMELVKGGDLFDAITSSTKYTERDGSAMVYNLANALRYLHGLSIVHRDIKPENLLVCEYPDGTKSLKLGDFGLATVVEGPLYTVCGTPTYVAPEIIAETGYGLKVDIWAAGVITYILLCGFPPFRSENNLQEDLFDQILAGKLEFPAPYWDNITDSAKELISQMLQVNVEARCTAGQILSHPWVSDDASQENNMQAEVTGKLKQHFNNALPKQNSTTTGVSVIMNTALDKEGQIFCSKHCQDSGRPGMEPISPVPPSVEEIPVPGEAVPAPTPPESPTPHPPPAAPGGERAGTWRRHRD

[7] = biological target: T3, Serine/threonine-protein kinase Chk1 (Homo sapiens) (UniProt O14757); assay: Competitive binding affinity to CHEK1 (unknown origin) at 10 uM in presence of ATP relative to control
T3 sequence (whole entry): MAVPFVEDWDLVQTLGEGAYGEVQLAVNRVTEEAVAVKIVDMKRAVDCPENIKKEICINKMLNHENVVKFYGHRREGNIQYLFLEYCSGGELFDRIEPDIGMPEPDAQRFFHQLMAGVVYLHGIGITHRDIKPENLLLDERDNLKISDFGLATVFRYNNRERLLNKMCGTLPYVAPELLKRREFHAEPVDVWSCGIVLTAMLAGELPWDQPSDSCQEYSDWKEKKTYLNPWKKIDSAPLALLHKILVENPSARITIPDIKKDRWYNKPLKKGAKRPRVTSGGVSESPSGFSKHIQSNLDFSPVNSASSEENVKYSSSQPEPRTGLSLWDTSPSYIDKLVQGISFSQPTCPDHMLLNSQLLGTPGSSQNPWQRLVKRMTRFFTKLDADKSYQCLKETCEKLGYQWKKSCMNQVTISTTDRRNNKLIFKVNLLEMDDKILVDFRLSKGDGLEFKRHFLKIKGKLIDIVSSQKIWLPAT

[8] = biological target: T4, TGF-beta receptor type-1 (Homo sapiens) (UniProt P36897); assay: Competitive binding affinity to TGFBR1 (unknown origin) at 10 uM in presence of ATP relative to control
T4 sequence (whole entry): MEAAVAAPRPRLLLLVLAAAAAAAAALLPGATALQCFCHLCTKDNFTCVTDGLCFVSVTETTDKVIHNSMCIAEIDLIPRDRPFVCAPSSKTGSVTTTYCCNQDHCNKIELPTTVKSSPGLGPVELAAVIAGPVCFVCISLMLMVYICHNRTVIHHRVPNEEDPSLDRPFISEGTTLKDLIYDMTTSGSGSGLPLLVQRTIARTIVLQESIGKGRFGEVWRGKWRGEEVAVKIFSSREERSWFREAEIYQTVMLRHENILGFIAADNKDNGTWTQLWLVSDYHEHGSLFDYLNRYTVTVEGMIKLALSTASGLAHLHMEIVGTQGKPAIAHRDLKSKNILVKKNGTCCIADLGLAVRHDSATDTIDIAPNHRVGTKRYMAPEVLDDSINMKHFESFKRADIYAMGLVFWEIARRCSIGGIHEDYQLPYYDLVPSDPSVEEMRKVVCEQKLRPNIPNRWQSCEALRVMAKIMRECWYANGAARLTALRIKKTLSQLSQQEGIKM

[9] = biological target: SRSF protein kinase 2 (Homo sapiens) (UniProt P78362); assay: Competitive binding affinity to SRPK2 (unknown origin) at 10 uM in presence of ATP relative to control
[10] = biological target: Tyrosine-protein kinase Srms (Homo sapiens) (UniProt Q9H3Y6); assay: Competitive binding affinity to SRMS (unknown origin) at 10 uM in presence of ATP relative to control
[11] = biological target: Cyclin-dependent kinase 14 (Homo sapiens) (UniProt O94921); assay: Competitive binding affinity to PFTK1 (unknown origin) at 10 uM in presence of ATP relative to control
Cyclin-dependent kinase 14 (Homo sapiens), sequence (O94921 whole entry): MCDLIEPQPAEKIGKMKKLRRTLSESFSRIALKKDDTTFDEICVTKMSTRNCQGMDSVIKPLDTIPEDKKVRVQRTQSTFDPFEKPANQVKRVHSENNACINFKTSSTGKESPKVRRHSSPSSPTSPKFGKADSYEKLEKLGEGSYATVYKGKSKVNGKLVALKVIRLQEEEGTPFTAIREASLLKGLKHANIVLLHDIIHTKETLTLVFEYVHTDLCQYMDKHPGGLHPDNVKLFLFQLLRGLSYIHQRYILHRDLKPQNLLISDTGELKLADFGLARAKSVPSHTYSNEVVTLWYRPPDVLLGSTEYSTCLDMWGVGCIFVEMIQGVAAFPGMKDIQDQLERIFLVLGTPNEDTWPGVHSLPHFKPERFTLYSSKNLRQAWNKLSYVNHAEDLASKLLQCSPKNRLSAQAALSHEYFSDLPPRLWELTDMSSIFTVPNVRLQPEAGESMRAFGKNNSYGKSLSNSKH

Tyrosine-protein kinase Srms (Homo sapiens), sequence (Q9H3Y6 whole entry): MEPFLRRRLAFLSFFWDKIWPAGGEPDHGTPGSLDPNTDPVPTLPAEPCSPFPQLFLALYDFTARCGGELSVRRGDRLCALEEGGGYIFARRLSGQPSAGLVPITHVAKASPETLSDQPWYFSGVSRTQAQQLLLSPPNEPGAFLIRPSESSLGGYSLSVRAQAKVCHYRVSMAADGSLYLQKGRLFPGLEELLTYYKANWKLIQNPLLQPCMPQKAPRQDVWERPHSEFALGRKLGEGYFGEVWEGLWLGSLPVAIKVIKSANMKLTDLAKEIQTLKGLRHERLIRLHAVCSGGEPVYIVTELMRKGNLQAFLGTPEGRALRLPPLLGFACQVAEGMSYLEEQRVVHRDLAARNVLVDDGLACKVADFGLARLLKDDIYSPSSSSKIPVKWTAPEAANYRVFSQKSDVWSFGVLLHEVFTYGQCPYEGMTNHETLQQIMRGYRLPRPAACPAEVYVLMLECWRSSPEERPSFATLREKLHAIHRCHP
MAP kinase-activated protein kinase 2 (Homo sapiens), sequence (P49137 whole entry, looked up): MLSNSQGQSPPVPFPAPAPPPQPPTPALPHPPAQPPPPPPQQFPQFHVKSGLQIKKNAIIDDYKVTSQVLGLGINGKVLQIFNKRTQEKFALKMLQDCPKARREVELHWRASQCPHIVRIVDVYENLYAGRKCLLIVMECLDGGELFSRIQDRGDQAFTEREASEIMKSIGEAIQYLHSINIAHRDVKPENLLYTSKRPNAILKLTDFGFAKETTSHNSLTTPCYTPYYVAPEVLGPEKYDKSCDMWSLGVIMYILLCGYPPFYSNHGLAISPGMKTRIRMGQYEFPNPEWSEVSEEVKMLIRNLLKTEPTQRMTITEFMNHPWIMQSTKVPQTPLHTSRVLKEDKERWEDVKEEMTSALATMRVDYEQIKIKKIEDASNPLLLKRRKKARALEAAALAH
Mitogen-activated protein kinase kinase kinase 9 (Homo sapiens), sequence (P80192 whole entry, looked up): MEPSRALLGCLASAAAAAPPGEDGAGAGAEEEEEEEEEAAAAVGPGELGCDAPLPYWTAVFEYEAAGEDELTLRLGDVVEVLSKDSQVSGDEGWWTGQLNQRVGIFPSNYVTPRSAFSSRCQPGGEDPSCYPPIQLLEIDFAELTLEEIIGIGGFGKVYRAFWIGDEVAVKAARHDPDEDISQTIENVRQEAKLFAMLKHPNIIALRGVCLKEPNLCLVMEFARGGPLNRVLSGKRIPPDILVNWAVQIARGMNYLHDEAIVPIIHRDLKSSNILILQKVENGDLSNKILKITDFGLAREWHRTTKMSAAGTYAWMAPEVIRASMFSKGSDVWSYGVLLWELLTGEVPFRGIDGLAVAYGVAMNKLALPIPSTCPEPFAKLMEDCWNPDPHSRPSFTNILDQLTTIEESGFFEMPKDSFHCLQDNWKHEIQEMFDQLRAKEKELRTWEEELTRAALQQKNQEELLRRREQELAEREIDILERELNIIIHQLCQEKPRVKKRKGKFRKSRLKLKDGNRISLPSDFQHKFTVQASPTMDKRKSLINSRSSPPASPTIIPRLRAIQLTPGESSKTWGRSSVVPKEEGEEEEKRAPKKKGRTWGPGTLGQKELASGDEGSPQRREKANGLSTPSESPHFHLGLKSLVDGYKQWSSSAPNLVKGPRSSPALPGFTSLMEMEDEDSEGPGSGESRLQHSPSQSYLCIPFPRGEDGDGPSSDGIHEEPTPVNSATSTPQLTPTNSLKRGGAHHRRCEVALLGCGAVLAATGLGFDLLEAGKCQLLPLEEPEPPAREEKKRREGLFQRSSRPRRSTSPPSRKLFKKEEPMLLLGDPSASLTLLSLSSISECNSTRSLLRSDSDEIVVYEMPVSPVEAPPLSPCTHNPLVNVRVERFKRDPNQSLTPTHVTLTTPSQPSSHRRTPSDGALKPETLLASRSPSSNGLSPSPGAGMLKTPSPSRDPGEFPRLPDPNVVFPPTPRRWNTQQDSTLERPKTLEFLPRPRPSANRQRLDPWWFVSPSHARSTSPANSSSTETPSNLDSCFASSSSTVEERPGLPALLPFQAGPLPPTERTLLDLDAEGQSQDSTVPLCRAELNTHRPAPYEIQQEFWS
Serine/threonine-protein kinase MRCK gamma (Homo sapiens), sequence (Q6DT37 whole entry): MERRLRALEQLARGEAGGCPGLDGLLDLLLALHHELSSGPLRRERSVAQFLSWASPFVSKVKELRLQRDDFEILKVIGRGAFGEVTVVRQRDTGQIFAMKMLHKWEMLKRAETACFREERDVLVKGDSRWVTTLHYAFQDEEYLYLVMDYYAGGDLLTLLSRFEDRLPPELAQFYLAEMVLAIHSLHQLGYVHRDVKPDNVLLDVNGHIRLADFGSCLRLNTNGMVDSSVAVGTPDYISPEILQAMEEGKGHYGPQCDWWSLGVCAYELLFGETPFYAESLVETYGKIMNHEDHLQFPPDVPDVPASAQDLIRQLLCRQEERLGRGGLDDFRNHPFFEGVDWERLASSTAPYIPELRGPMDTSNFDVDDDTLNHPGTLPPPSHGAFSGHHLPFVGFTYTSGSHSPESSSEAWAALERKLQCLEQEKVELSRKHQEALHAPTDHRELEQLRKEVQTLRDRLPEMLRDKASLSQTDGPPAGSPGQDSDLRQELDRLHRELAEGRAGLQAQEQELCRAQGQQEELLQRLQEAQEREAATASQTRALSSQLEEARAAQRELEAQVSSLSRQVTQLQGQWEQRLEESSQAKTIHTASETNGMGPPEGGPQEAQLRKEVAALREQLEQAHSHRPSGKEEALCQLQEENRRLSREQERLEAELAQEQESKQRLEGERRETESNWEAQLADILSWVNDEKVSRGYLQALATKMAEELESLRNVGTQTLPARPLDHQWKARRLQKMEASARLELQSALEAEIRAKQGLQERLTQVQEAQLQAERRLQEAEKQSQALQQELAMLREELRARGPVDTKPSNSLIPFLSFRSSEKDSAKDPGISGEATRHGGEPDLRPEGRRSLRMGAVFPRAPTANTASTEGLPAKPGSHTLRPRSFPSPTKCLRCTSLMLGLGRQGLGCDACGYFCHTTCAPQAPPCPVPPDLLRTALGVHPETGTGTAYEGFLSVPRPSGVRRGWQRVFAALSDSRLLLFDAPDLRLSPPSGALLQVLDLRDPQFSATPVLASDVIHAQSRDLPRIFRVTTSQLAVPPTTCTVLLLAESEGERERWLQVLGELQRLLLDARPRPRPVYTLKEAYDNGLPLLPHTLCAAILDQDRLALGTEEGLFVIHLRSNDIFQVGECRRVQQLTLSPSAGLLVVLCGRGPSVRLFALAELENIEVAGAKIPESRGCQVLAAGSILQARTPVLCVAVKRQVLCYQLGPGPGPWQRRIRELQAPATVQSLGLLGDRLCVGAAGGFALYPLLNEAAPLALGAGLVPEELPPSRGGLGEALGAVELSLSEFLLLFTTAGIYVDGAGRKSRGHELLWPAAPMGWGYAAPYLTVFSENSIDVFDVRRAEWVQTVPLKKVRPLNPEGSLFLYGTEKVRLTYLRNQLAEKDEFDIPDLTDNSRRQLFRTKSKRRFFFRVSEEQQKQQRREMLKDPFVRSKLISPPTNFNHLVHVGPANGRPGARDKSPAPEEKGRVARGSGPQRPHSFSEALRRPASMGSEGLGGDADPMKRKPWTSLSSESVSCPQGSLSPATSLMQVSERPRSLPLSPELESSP
Dual specificity mitogen-activated protein kinase kinase 1 (Homo sapiens), sequence (Q02750 whole entry): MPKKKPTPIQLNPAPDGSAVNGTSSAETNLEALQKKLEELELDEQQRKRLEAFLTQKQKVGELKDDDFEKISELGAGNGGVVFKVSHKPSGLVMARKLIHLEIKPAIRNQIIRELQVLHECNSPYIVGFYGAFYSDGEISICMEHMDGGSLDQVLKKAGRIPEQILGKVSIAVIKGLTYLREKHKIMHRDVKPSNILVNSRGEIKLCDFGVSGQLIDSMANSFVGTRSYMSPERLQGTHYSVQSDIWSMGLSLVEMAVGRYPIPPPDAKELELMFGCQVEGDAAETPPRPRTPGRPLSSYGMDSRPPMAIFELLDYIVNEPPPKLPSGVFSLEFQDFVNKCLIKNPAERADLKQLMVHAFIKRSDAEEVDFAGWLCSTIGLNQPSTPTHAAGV

Row | inhibition [1] | inhibition [2] | inhibition [3] | inhibition (Homo sapiens) | inhibition [4] | inhibition [5] | inhibition [6] | inhibition [7] | inhibition [8] | inhibition [9] | inhibition [10] | inhibition [11] | Compound
1 | < 50% | < 50% | < 50% | < 50% | 91% | < 50% | < 50% | < 50% | < 50% | < 50% | < 50% | < 50% | O[C@H]1CC[C@H](Nc2nccc(-n3ncc4ccccc43)n2)CC1
2 | < 50% | < 50% | < 50% | < 50% | < 50% | < 50% | < 50% | < 50% | < 50% | < 50% | < 50% | < 50% | O[C@H]1CC[C@H](Nc2nccc(-n3ccc4ccccc43)n2)CC1
3 |  |  |  | < 50% |  |  |  |  | < 50% |  |  |  | O[C@H]1CC[C@H](Nc2nccc(-c3n[nH]c4ccccc34)n2)CC1
4 | < 50% | < 50% | < 50% | < 50% | 86% | < 50% | < 50% | < 50% | < 50% | < 50% | < 50% | 79% | O[C@H]1CC[C@H](Nc2nccc(-n3nnc4ccccc43)n2)CC1
